# Experimental data from US12171732B2, “Compositions and use of N-chlorotaurine for treatment and prevention of respiratory infections” (priority 2021, dated 2024).
# Like-named read-outs stand apart in the source and are kept apart here.
# Key:
# [1] = system: SARS-CoV-2 B.1.351 (Beta); format: cell-based; details: 1% NCT, 37° C.
# [2] = system: SARS-CoV-2 B.1.1.7 (Alpha); format: cell-based; details: 1% NCT, 37° C.
# [3] = system: SARS-CoV-2; format: in vivo, human; details: Example 3 patient, Day 5, first 1% NCT nasal spray, 2 puffs in each nostril
smiles,measurement,setting,value
"O=S(=O)(O)CCNCl [NCT, N-chlorotaurine]",reduction of infected cells,"[1]; after 1 min (not significant, p=0.313)",0-48%
same,reduction of infected cells,[1]; after 5 min,54-72%
same,reduction of infected cells,[1]; after 10 min,82-97%
same,reduction of infected cells,[1]; after 20 min,99-100%
same,reduction of infected cells,[1]; after 30 min,100%
same,reduction of infected cells,[2]; after 1 min,42-54%
same,reduction of infected cells,[2]; after 5 min,50-71%
same,reduction of infected cells,[2]; after 10 min,62-99%
same,reduction of infected cells,[2]; after 20 min,99-100%
same,reduction of infected cells,[2]; after 30 min,100%
same,time until nasal passages cleared and nasal secretion dried up,[3],≤ 30 min
